# From ChEMBL document CHEMBL1201862, “PubChem BioAssay data set” (2004)
# The source made the active and inactive calls.
# Columns and labels:
# [1] = general mammalian cell viability loss – activator set, cherry-pick, cytotoxicity control for miR-122 modulator project, dose response (AID 720690); assay type: functional, cell-based;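 further: HEK293T human cells scored for general mammalian cytotoxicity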
# [2] = biological target: Galanin receptor type 2 (Homo sapiens, UniProt O43603); experiment: Dose Response cell-based high-throughput screening assay to identify antagonists of galanin receptor 2 (GALR2). [Related pubchem assays: 828, 866 ]; assay type: functional
# Sequence of Galanin receptor type 2 (O43603 whole entry): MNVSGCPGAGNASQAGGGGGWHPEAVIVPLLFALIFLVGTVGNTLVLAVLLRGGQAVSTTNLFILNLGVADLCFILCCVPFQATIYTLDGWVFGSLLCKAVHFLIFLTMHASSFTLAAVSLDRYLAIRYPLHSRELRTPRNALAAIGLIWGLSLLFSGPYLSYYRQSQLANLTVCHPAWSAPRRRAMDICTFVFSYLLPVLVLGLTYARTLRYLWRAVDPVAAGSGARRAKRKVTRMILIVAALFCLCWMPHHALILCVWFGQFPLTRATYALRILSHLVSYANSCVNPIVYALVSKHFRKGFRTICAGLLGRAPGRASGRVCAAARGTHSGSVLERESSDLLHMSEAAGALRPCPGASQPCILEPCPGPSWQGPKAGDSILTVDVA
# [3] = biological target: T1, Microphthalmia-associated transcription factor (Homo sapiens, UniProt O75030); experiment: reducers of TRPM1 reporter luminescence, concentration series – cell-based, SK-MEL-5, cherry-picked, set 3, MITF inhibitor project, dose response (AID 493073); assay type: functional;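 further: SK-MEL-5 melanoma cells with luciferase driven by the MITF target TRPM1 promoter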
# T1 sequence (O75030 whole entry): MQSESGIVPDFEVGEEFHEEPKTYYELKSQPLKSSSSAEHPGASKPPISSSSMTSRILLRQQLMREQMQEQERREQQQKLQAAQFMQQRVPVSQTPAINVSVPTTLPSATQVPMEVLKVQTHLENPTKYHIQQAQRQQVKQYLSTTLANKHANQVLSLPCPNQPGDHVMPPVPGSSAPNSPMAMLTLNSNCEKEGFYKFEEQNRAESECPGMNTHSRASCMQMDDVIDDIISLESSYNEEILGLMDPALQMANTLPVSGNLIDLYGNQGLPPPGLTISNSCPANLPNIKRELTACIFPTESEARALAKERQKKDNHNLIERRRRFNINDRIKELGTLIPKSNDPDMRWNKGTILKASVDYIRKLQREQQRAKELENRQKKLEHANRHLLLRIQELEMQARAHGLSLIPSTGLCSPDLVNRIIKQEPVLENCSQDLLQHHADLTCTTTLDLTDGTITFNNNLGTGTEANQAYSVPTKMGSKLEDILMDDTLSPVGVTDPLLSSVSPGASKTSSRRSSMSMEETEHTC
# [4] = biological target: Sphingosine 1-phosphate receptor 4 (Homo sapiens, UniProt O95977); experiment: Fluorescence dose response cell-based high throughput screening assay for antagonists of the Sphingosine 1-Phosphate Receptor 4 (S1P4). [Related pubchem assays: 1524 (Confirmation in triplicates.), 1510 (Primary screen.)]; assay type: functional
# Sequence of Sphingosine 1-phosphate receptor 4 (O95977 whole entry): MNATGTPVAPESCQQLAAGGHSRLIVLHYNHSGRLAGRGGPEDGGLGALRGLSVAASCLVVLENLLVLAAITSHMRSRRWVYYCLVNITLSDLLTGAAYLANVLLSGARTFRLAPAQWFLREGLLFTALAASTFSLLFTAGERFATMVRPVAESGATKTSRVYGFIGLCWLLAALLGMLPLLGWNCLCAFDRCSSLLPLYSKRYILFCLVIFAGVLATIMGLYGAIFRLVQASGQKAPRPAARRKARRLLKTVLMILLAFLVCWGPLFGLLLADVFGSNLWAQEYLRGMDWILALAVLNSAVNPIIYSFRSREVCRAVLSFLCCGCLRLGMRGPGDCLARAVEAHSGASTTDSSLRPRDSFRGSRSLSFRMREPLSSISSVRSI
# [5] = biological target: Sphingosine 1-phosphate receptor 1 (Homo sapiens, UniProt P21453); assay type: functional;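 further: Tango beta-arrestin reporter U2OS cells stimulated with S1P near its EC80; inhibitor potency meaning antagonism of receptor activation by the natural agonist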
# Sequence of Sphingosine 1-phosphate receptor 1 (P21453 whole entry): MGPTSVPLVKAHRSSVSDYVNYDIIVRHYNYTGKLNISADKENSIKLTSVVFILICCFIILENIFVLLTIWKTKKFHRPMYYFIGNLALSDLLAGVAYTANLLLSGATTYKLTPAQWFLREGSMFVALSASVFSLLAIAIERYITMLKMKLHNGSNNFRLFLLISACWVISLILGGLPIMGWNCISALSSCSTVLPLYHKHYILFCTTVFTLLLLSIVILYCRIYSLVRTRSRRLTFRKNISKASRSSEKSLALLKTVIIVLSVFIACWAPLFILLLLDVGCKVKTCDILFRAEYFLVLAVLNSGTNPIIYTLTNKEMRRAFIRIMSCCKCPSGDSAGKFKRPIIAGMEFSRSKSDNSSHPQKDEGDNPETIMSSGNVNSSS
# [6] = activation of miR-122 Renilla sensor silencing – cell-based, Huh7 psiCHECK-miR122, Renilla luciferase, cherry-picked, dose response (AID 651956); assay type: functional;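 further: huh7 hepatoma cells stably carrying a psiCHECK-2 miR-122 sensor plasmid; renilla luciferase signal reporting endogenous miR-122 activity after 48 h compound exposure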
# [7] = biological target: T2, Serine/threonine-protein phosphatase (Homo sapiens, UniProt Q9BPW0); experiment: inhibition of protein phosphatase 5 activity – biochemical, fluorescence, dose response (AID 2395)
# T2 sequence (Q9BPW0 whole entry): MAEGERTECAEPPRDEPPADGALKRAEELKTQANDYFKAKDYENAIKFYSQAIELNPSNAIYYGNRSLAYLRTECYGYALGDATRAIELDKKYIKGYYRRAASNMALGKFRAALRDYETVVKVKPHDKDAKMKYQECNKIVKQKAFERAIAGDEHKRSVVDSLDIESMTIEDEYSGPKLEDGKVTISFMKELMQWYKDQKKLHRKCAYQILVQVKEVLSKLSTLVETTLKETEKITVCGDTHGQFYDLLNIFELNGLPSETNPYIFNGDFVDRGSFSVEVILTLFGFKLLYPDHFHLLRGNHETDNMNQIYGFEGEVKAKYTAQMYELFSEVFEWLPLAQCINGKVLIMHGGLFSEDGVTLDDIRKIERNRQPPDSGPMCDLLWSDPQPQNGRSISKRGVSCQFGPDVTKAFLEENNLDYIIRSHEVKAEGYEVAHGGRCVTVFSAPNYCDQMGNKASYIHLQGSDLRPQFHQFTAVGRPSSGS
# [8] = biological target: Serine/threonine-protein phosphatase PP1-alpha catalytic subunit (Homo sapiens, UniProt P62136); experiment: inhibition of protein phosphatase 1 activity – biochemical, fluorescence, dose response (AID 2394)
# Sequence of Serine/threonine-protein phosphatase PP1-alpha catalytic subunit (P62136 whole entry): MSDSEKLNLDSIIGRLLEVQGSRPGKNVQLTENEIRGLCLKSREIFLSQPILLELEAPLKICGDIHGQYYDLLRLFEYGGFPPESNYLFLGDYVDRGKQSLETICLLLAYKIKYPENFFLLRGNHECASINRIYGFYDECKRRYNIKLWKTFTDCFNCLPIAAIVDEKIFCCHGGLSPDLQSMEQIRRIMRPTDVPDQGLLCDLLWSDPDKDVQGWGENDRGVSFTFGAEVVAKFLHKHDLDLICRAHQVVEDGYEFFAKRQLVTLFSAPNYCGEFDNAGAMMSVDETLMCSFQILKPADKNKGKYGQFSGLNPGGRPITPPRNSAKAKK
# [9] = biological target: T3, Histone-lysine N-methyltransferase NSD2 (Homo sapiens, UniProt O96028); assay type: biochemical
# T3 sequence (O96028 whole entry): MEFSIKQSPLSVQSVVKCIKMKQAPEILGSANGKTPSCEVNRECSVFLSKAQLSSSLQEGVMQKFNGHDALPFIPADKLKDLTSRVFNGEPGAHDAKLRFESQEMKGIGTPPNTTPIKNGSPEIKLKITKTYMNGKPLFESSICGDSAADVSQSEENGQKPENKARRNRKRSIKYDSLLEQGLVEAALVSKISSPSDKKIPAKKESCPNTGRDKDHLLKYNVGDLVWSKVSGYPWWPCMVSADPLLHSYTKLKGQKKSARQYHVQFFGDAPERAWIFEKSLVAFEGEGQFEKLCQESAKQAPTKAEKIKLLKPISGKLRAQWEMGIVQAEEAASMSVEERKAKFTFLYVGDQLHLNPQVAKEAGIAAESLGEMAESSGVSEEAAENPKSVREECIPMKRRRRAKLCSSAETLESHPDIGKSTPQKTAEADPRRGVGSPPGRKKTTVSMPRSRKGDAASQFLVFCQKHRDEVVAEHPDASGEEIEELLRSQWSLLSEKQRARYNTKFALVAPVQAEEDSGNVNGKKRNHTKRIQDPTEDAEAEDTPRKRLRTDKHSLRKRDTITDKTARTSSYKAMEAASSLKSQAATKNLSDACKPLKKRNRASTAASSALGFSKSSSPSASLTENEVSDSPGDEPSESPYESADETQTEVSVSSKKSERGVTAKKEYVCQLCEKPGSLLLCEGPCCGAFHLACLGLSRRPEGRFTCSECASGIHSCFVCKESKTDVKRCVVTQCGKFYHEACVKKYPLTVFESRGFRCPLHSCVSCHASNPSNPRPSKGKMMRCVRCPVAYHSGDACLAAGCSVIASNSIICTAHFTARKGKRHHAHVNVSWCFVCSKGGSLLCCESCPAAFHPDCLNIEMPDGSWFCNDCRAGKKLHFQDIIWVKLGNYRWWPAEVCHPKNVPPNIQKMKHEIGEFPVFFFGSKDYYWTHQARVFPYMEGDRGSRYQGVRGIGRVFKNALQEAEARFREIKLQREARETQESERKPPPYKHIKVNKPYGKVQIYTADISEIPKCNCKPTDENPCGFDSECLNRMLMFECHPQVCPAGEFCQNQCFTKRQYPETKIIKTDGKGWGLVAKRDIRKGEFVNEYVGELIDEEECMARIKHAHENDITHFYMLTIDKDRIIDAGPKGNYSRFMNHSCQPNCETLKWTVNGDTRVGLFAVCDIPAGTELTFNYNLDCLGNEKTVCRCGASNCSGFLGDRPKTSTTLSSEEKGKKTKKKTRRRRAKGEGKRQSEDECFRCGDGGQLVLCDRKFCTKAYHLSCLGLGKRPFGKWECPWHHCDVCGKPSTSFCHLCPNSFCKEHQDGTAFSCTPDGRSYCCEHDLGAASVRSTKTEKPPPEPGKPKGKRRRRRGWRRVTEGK
# [10] = biological target: T4, Sentrin-specific protease 8 (Homo sapiens, UniProt Q96LD8); assay type: functional
# T4 sequence (Q96LD8 whole entry): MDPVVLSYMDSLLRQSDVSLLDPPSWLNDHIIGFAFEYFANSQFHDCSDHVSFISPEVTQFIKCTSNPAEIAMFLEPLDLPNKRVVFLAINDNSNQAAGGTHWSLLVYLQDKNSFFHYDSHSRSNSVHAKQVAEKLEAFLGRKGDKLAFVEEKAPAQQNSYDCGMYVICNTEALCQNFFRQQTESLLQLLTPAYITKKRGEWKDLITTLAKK
# [11] = biological target: T4, Sentrin-specific protease 8; assay type: functional; remark: listed apart in the source
# [12] = antiviral protection against BTV-induced cell death – arbovirus, BSR cells, confirmation (AID 1250); assay type: functional;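 further: protection from viral cytopathic effect measured as cell viability by ATP luminescence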
# [13] = viability of uninfected HEp-2 cells – cell-based, HTS, cytotoxicity control for RSV inhibitor project, dose response (AID 2410); assay type: functional; conditions: human respiratory syncytial virus
# [14] = biological target: T5, Long-chain-fatty-acid--AMP ligase FadD28 (Mycobacterium tuberculosis, UniProt P9WQ59); experiment: Fluorescence polarization aasay to screen for inhibitors that compete for the binding of FadD28 to a bisubstrate Measured in Biochemical System Using Plate Reader - 2147-01_Inhibitor_Dose_CherryPick_Activity.; assay type: functional, Mycobacterium tuberculosis H37Rv
# T5 sequence (P9WQ59 whole entry): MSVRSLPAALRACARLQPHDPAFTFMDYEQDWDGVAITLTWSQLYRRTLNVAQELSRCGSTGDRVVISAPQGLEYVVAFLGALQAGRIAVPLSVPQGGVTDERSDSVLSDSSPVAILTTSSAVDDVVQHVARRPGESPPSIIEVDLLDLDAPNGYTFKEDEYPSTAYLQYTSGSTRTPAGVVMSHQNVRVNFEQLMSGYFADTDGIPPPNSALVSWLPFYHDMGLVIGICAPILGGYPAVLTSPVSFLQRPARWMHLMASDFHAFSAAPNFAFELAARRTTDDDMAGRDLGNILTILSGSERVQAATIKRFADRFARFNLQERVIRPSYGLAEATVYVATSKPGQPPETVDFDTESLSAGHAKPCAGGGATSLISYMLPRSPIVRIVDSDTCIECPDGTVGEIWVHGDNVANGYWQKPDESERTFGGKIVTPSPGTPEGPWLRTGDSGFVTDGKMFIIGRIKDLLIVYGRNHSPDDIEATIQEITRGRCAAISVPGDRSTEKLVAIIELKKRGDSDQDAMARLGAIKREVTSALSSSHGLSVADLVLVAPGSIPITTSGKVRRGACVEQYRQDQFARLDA
# [15] = biological target: Genome polyprotein (dengue virus type 2, UniProt P29990); experiment: flavivirus cap methylation enzyme inhibition – biochemical, confirmation dose response, primary screen (AID 588689); assay type: functional
# Sequence of Genome polyprotein (P29990 2492-3391 limits assumed): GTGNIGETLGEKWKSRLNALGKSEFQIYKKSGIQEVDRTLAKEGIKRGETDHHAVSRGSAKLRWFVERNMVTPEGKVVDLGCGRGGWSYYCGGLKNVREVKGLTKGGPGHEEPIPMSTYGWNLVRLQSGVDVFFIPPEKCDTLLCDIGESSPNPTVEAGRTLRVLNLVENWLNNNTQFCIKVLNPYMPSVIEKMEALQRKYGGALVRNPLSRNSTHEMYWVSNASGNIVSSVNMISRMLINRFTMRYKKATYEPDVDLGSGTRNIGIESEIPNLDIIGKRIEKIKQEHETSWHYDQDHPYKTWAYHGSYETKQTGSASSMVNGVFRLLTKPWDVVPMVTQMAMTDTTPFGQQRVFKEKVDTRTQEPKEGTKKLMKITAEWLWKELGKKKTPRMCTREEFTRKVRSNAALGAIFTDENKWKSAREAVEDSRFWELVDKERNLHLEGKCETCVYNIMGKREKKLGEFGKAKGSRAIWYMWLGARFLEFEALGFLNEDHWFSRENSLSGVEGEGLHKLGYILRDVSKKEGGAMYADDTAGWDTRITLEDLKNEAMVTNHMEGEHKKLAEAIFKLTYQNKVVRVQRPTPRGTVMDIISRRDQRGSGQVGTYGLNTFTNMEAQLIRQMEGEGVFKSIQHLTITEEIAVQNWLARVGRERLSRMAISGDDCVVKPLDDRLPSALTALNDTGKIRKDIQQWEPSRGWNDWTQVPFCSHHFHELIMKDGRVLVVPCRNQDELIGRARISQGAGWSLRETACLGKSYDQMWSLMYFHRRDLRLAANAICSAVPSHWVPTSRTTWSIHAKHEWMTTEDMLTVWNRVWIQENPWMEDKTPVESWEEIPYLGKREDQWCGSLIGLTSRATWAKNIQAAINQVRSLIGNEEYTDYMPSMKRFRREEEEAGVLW
# [16] = cells
# [17] = biological target: T6, Carboxy-terminal domain RNA polymerase II polypeptide A small phosphatase 1 (Homo sapiens, UniProt Q9GZU7); experiment: CTDSP1 inhibitors, concentration-response, biochemical, absorbance readout, ultra-high-throughput screen actives (AID 540297); assay type: functional
# T6 sequence (Q9GZU7 whole entry): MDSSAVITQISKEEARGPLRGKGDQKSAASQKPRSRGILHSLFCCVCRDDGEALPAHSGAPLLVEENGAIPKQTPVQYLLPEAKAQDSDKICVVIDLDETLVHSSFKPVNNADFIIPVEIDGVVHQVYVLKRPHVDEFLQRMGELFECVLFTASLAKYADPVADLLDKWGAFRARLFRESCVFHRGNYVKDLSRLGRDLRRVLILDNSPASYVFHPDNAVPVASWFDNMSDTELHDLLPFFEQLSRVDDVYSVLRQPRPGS
compound,measurement,setting,value
CCc1ccccc1NC(=O)CN(C)C(=O)Cn1ncc(Cl)c(Cl)c1=O,AC50,[1],4.59 µM (active)
same,IC50,[2],7.62 µM (active)
same,AC50,[3],11 µM (active)
same,IC50,[4],2.11 µM (active)
same,IC50,[5],13.6 µM (not active)
same,AC50,[6],13.2 µM (active)
CCOc1ccc(NC(S)=Nc2ccc3nsnc3c2)cc1,IC50,[7],8.78 µM (active)
same,IC50,[8],> 67 µM (not active)
same,AC50,[9],4.61 µM (active)
same,IC50,[10],5.72 µM (active)
same,IC50,[11],2.32 µM (active)
O=C(O)CC/C(=C\c1ccc(N2CCCC2)c([N+](=O)[O-])c1)c1nc2ccccc2s1,IC50,[12],27.8 µM (active)
same,CC50,[13],33.3 µM (active)
same,AC50,[14],> 100 µM (inactive)
same,IC50,[15],43.1 µM (active)
COc1ccc(OC)c(-n2c(SCC(=O)NCc3ccco3)nnc2-c2c[nH]c3ccccc23)c1,IC50,[16],> 50 µM (active)
O=C(COC(=O)c1ccc(NS(=O)(=O)c2cccs2)cc1)Nc1nc2c(F)c(F)c(F)cc2s1,IC50,[12],46.2 µM (active)
same,IC50,[17],4.05 µM (active)
CC(=N)/C(C#N)=C(/O)COc1ccc(Cl)cc1Cl,CC50,[13],> 50 µM (active)
same,IC50,[16],49.6 µM (active)
